Values joined by “and” are separate entries in the source; they are usually repeats but may differ in a detail not shown here. Equal entries are not always repeated.
Key:
[1] = xn = mol fraction of the nth substance listed; details: 101.3 kPa, Liquid, Vibrating tube method
[2] = 101.3 kPa, Liquid, Vibrating tube method

CCCCCCCCCO [nonan-1-ol] + CC(O)CO
mass density [kg/m3], [1]
Details | x2 = 0 | x2 = 0.1056 | x2 = 0.225 | x2 = 0.3433 | x2 = 0.3773 | x2 = 0.5551 | x2 = 0.6746 | x2 = 0.7695 | x2 = 0.7978 | x2 = 0.899
293.15 K | 827.667 | 836.639 | 848.601 | 862.671 | 867.271 | 895.783 | 920.803 | 945.697 | 953.952 | 989.338
298.15 K | 824.254 | 833.182 | 845.095 | 859.126 | 863.71 | 892.163 | 917.143 | 942.013 | 950.266 | 985.641
303.15 K | 820.815 | 829.698 | 841.567 | 855.554 | 860.127 | 888.513 | 913.452 | 938.296 | 946.543 | 981.914
308.15 K | 817.362 | 826.204 | 838.022 | 851.964 | 856.523 | 884.841 | 909.736 | 934.554 | 942.791 | 978.153
313.15 K | 813.885 | 822.685 | 834.458 | 848.353 | 852.901 | 881.148 | 906.002 | 930.783 | 939.015 | 974.358
318.15 K | 810.385 | 819.146 | 830.872 | 844.72 | 849.257 | 877.428 | 902.236 | 926.985 | 935.207 | 970.53

CC(O)CO (stereo not given) [1,2-propanediol] + CCCO
mass density [kg/m3], [1]
Details | x1 = 0.1001 | x1 = 0.2 | x1 = 0.3001 | x1 = 0.3999 | x1 = 0.4999 | x1 = 0.6997 | x1 = 0.7998 | x1 = 0.9497 | x1 = 1
293.15 K | 827.101 | 850.504 | 873.567 | 897.361 | 920.615 | 967.056 | 990.126 | 1024.72 | 1036.13
298.15 K | 823.072 | 846.479 | 869.634 | 893.372 | 916.676 | 963.215 | 986.331 | 1021.04 | 1032.48
303.15 K | 819.008 | 842.415 | 865.603 | 889.385 | 912.697 | 959.329 | 982.502 | 1017.3 | 1028.78
308.15 K | 814.909 | 838.312 | 861.519 | 885.326 | 908.683 | 955.407 | 978.642 | 1013.52 | 1025.05
313.15 K | 810.77 | 834.174 | 857.399 | 881.264 | 904.631 | 951.451 | 974.743 | 1009.71 | 1021.28
318.15 K | 806.589 | 829.994 | 853.237 | 877.138 | 900.544 | 947.456 | 970.809 | 1005.86 | 1017.47

CO [methanol] + CC(O)CO
[1], x2 = 0
Details | mass density [kg/m3]
293.15 K | 791.494
298.15 K | 786.794
303.15 K | 782.071
308.15 K | 777.326
313.15 K | 772.55
318.15 K | 767.744

CCCCCCCCO [octan-1-ol]
[2]
Details | mass density [kg/m3]
293.15 K | 825.093
298.15 K | 821.647
303.15 K | 818.177
308.15 K | 814.686
313.15 K | 811.171
318.15 K | 807.629

CO [methanol]
[2]
Details | mass density [kg/m3]
293.15 K | 791.494
298.15 K | 786.794
303.15 K | 782.071
308.15 K | 777.326
313.15 K | 772.55
318.15 K | 767.744

CC(O)CO (stereo not given) [1,2-propanediol] + CCCCCCCCO
mass density [kg/m3], [1]
Details | x1 = 0.1028 | x1 = 0.1938 | x1 = 0.3029 | x1 = 0.3929 | x1 = 0.5181 | x1 = 0.6002 | x1 = 0.7012 | x1 = 0.8016 | x1 = 0.901 | x1 = 1
293.15 K | 834.904 | 844.743 | 858.314 | 871.118 | 892.06 | 908.213 | 931.472 | 959.327 | 993.344 | 1036.22
298.15 K | 831.409 | 841.209 | 854.74 | 867.513 | 888.414 | 904.545 | 927.781 | 955.627 | 989.648 | 1032.56
303.15 K | 827.891 | 837.652 | 851.144 | 863.884 | 884.743 | 900.85 | 924.062 | 951.891 | 985.914 | 1028.85
308.15 K | 824.351 | 834.08 | 847.528 | 860.235 | 881.051 | 897.13 | 920.315 | 948.124 | 982.15 | 1025.1
313.15 K | 820.793 | 830.481 | 843.885 | 856.562 | 877.332 | 893.39 | 916.543 | 944.333 | 978.349 | 1021.31
318.15 K | 817.208 | 826.859 | 840.223 | 852.864 | 873.592 | 889.619 | 912.743 | 940.506 | 974.513 | 1017.49

CC(O)CO (stereo not given) [1,2-propanediol] + CO
mass density [kg/m3], [1]
Details | x1 = 0.1008 | x1 = 0.1385 | x1 = 0.2582 | x1 = 0.3 | x1 = 0.4851 | x1 = 0.5476 | x1 = 0.6991 | x1 = 0.7595 | x1 = 0.8991 | x1 = 1
293.15 K | 838.277 | 853.548 | 895.155 | 908.078 | 954.527 | 967.74 | 995.074 | 1004.49 | 1024 | 1036.17
298.15 K | 833.79 | 849.127 | 890.917 | 903.893 | 950.534 | 963.799 | 991.242 | 1000.7 | 1020.29 | 1032.52
303.15 K | 829.274 | 844.68 | 886.644 | 899.676 | 946.507 | 959.825 | 987.37 | 996.862 | 1016.54 | 1028.83
308.15 K | 824.731 | 840.206 | 882.346 | 895.43 | 942.448 | 955.815 | 983.47 | 992.997 | 1012.75 | 1025.09
313.15 K | 820.164 | 835.7 | 878.013 | 891.151 | 938.356 | 951.772 | 979.532 | 989.094 | 1008.92 | 1021.31
318.15 K | 815.56 | 831.158 | 873.648 | 886.837 | 934.226 | 947.684 | 975.556 | 985.157 | 1005.05 | 1017.49

CC(O)CO (stereo not given) [1,2-propanediol]
[2]
Details | mass density
293.15 K | 1036.21 kg/m3 [middle of 4 runs]
298.15 K | 1032.55 kg/m3 [middle of 4 runs]
303.15 K | 1028.84 kg/m3 [middle of 4 runs]
308.15 K | 1025.09 kg/m3 and 1025.1 kg/m3 and 1025.05 kg/m3
313.15 K | 1021.28 kg/m3 and 1021.31 kg/m3
318.15 K | 1017.47 kg/m3 and 1017.49 kg/m3

CCCO [propan-1-ol] + CC(O)CO
[1], x2 = 0
Details | mass density [kg/m3]
293.15 K | 803.527
298.15 K | 799.528
303.15 K | 795.493
308.15 K | 791.426
313.15 K | 787.32
318.15 K | 783.164

CCCCCCCCCO [nonan-1-ol]
[2]
Details | mass density [kg/m3]
293.15 K | 827.667
298.15 K | 824.254
303.15 K | 820.815
308.15 K | 817.362
313.15 K | 813.885
318.15 K | 810.385

CCCCCCO [hexan-1-ol]
[2]
Details | mass density [kg/m3]
293.15 K | 818.749
298.15 K | 815.188
303.15 K | 811.6
308.15 K | 807.984
313.15 K | 804.339
318.15 K | 800.657

CCCCCCCCO [octan-1-ol] + CC(O)CO
[1], x2 = 0
Details | mass density [kg/m3]
293.15 K | 825.093
298.15 K | 821.647
303.15 K | 818.177
308.15 K | 814.686
313.15 K | 811.171
318.15 K | 807.629

CCCCCCO [hexan-1-ol] + CC(O)CO
[1], x2 = 0
Details | mass density [kg/m3]
293.15 K | 818.749
298.15 K | 815.188
303.15 K | 811.6
308.15 K | 807.984
313.15 K | 804.339
318.15 K | 800.657

CC(O)CO (stereo not given) [1,2-propanediol] + CCCCCCO
mass density [kg/m3], [1]
Details | x1 = 0.1014 | x1 = 0.1998 | x1 = 0.2999 | x1 = 0.4003 | x1 = 0.4939 | x1 = 0.5996 | x1 = 0.6965 | x1 = 0.7989 | x1 = 0.9005 | x1 = 1
293.15 K | 831.496 | 845.231 | 860.667 | 877.818 | 895.533 | 917.945 | 941.028 | 968.795 | 1000.46 | 1036.21
298.15 K | 827.881 | 841.574 | 856.979 | 874.105 | 891.801 | 914.203 | 937.285 | 965.064 | 996.753 | 1032.55
303.15 K | 824.235 | 837.887 | 853.262 | 870.363 | 888.041 | 910.432 | 933.51 | 961.302 | 993.003 | 1028.84
308.15 K | 820.566 | 834.178 | 849.521 | 866.596 | 884.256 | 906.63 | 929.702 | 957.503 | 989.222 | 1025.09
313.15 K | 816.869 | 830.44 | 845.751 | 862.8 | 880.441 | 902.801 | 925.868 | 953.677 | 985.406 | 1021.31
318.15 K | 813.142 | 826.676 | 841.952 | 858.977 | 876.599 | 898.941 | 922.002 | 949.81 | 981.555 | 1017.49

CCCO [propan-1-ol]
[2]
Details | mass density [kg/m3]
293.15 K | 803.527
298.15 K | 799.528
303.15 K | 795.493
308.15 K | 791.426
313.15 K | 787.32
318.15 K | 783.164

CC(O)CO (stereo not given) [1,2-propanediol] + CCCCCCCCCO
[1], x1 = 1
Details | mass density [kg/m3]
293.15 K | 1036.17
298.15 K | 1032.52
303.15 K | 1028.83
308.15 K | 1025.09
313.15 K | 1021.31
318.15 K | 1017.49

Reference: the NIST ThermoML archive (doi:10.1016/j.jct.2012.12.003)
